{"source": "patent US7326697B2", "about": "“Methods for increasing the therapeutic response to electroconvulsive therapy” (Corcept Therapeutics, Inc., priority 2002, dated 2008)", "key": {"[1]": {"conditions": "in one study; cited from earlier work"}, "[2]": {"test": "Case: mental illness treated with mifepristone therapy followed by bilateral ECT", "type": "in vivo", "conditions": "one patient", "procedure": "The patient subsequently underwent four treatments of bilateral ECT while continuing mifepristone therapy. […] During each treatment session, the patient received between 60 and 100 mg of methohexital and between 60 and 80 mg of succinylcholine.\nFor the first ECT treatment, the patient was delivered a stimulus using the Thymatron ECT device at 35% with […] eeg seizure duration and 115 second motor duration. After the first treatment, the patient was better able to organize their thoughts and was able to engage in more appropriate conversations. The second treatment was also at 35%, but the eeg duration decreased to 61 seconds and no motor seizure was detected. Consequently on the third treatment, the energy setting was increased to 40% with 115 second eeg duration and 91 second motor duration. After the third treatment, the patient had fewer somatic delusions, was able to comprehend written text and was easier to engage in conversation."}}, "data": [{"smiles": "CC#C[C@]1(O)CC[C@H]2[C@@H]3CCC4=CC(=O)CCC4=C3[C@@H](c3ccc(N(C)C)cc3)C[C@@]21C", "note": "[mifepristone, (11β, 17β)-11-[4-(dimethylamino)phenyl]-17-hydroxy-17-(1-propynyl)estra-4,9-dien-3-one]", "values": [{"measurement": "fraction of the daily dose excreted in the urine", "setting": "[1]", "value": "less than 0.5%"}, {"measurement": "clinical response to ECT while continuing mifepristone therapy", "setting": "[2]; after four treatments of bilateral ECT, before the fifth", "value": "dramatically improved"}, {"measurement": "clinical response to mifepristone therapy alone", "setting": "[2]; before ECT", "value": "not significantly improving"}, {"measurement": "side-effects of ECT with continued mifepristone therapy", "setting": "[2]; four treatments of bilateral ECT", "value": "some impairment in short term memory but otherwise had no side-effects"}]}]}
